Results: publication PMC11611271, “Rapid prediction of key residues for foldability by machine learning model enables the design of highly functional libraries with hyperstable constrained peptide scaffolds” (PLOS Computational Biology, 2024)
Where a SMILES comes first, the peptide text is derived from it. Bridges are numbered along the chain shown (N, C = ends).

Test system: VEGF
Assay: phage spot ELISA on VEGF
Format: binding
Conditions: for S/N: phage spot ELISA signal/noise; for S/N / ELISA: S3 Table sheet VEGF; for ELISA: phage spot ELISA signal
From the text: To determine the performance of the libraries for ligand discovery we chose a panel of eight protein targets, which have no structural homology and a wide mass range (Fig 7C). We screened these eight targets with solution panning strategy and two additional plate panning for CD8α/β and CD28, thus ten panning campaigns in total. We consider clones showing spot phage ELISA signal > 0.3 and signal/noise ratio > 2 as positive hits. At least one binding hit was discovered for nine out of the ten panning campaigns, surpassing the success rate of the best DCP scaffolds reported previously. We also obtained the NGS data for these screening and the ranking of clones for their enrichment along the rounds of screening was analyzed and considered the top-ranking clones as potential hits. Based on their sequence diversity we selected 16 potential hits spanning five protein targets for peptide synthesis in their linear form. Seven of these are hits with positive phage ELISA signal and nine were selected based on NGS ranking without spot ELISA available. Subsequently, we conducted in vitro folding experiments on these peptides in various buffers. We observed a strong propensity for spontaneous folding regardless of the buffer condition. All HCP hits tested successfully folded into three-disulfide-containing product within two days in a universal buffer system (PBS, pH 7.4, 50% DMSO) without the need for a redox pair, as shown in Fig 8A. The binding of these folded peptides to their respective target proteins was confirmed using SPR (Table 4 and S1 Data) and binding kinetics are exemplified by the high-affinity peptide 5ji4-CRD7-2 (see Fig 8B). Among seven selected ELISA-positive hits, all of them were successfully synthesized and in vitro folded with three disulfide bonds and five were proven to be validated binders by SPR (Table 4). Nine peptides selected from the NGS ranking were synthesized and folded with the expected number of disulfide bonds and five of them bound to their target with affinities in the μM range as determined by SPR (Table 4). In general, binding affinities for these SPR-validated initial hits are weak, with Kd values in the micromolar range and fast on- and off-rates. There are two exceptions with binding affinities in the nanomolar range.
The 5ji4 libraries were constructed following the Kunkel mutagenesis method and the solution panning protocol was followed as previously described. After four to five rounds of binding selection, while eluted pool was subjected to NGS analysis, individual phage clones were also picked and analyzed with phage spot ELISA. Positive clones were subjected to SANGER sequencing.

Molecule	S/N	ELISA	ELISA signal (phage spot ELISA of the clone, positive hit: signal > 0.3 and signal/noise > 2)	ELISA s/n (phage spot ELISA signal/noise ratio)
PCECYMSNVNVGESSSEECERLCRKLGVTNCRVHCG [VEGF clone 22, phage clone, 5JI4 library, VEGF panning]	29.6607	3.322	–	–
PCECHFXGVHVGRSSSEECERLCRKLGVTNCRVHCG [VEGF clone 12, phage clone, 5JI4 library, VEGF panning]	15.0395	3.805	–	–
PCECWFYDALVGWTSSEECERLCRKLGVTNCRVHCG [VEGF clone 7, phage clone, 5JI4 library, VEGF panning]	41.3	4.13	–	–
PCECPRWWSHDGGYSSEECERLCRKLGVTNCRVHCG [VEGF clone 11, phage clone, 5JI4 library, VEGF panning]	38.9	3.89	–	–
PCECFMYGVYVGHSSSEACERLCRKLGVTNCRVHCG [VEGF clone 9, phage clone, 5JI4 library, VEGF panning]	39.95	3.995	–	–
PCECLMYRVXVGHSSSEACERLCRKLGVTNCRVHCG [VEGF clone 3, phage clone, 5JI4 library, VEGF panning]	42.6	4.34	–	–
PCECLMYGHHVGSASSEECERLCRKLGVTNCRVHCG [VEGF clone 19, phage clone, 5JI4 library, VEGF panning]	36.6559	3.409	–	–
PCECMFHGVPVGFSSSEECERLCRKLGVTNCRVHCG [VEGF clone 8, phage clone, 5JI4 library, VEGF panning]	37.2	4.06	–	–
PCECITKWSDWGFSSSEECERLCRKLGVTNCRVHCG [VEGF clone 24, phage clone, 5JI4 library, VEGF panning]	9.024	0.767	–	–
PCECYFQXVKVGESSSEECERLCRKLGVTNCRVHCG [VEGF clone 6, phage clone, 5JI4 library, VEGF panning]	32.5	4.23	–	–
PCECYFYDIVVGFSSSEECERLCRKLGVTNCRVHCG [VEGF clone 1, phage clone, 5JI4 library, VEGF panning]	58.3	6.00	–	–
PCECYFQGVNVGESSSEECERLCRKLGVTNCRVHCG [VEGF clone 16, phage clone, 5JI4 library, VEGF panning]	40.618	3.615	–	–
PCECFMYDILVGLASSEECERLCRKLGVTNCRVHCG [VEGF clone 2, phage clone, 5JI4 library, VEGF panning]	30.9	6.00	–	–
CC(C)C[C@@H]1NC(=O)[C@H](CCCNC(=N)N)NC(=O)[C@H](CCCCN)NC(=O)[C@@H]2CSSC[C@H](NC(=O)[C@H](CCC(=O)O)NC(=O)[C@@H](NC(=O)[C@@H]3CCCN3)CSSC[C@@H](C(=O)NCC(=O)O)NC(=O)[C@H](Cc3c[nH]cn3)NC(=O)[C@H](C(C)C)NC(=O)[C@H](CCCNC(=N)N)NC(=O)[C@@H]3CSSC[C@H](NC1=O)C(=O)N[C@@H](Cc1c[nH]c4ccccc14)C(=O)NCC(=O)N[C@@H](Cc1ccccc1)C(=O)NCC(=O)N[C@@H](CCC(N)=O)C(=O)N[C@@H](CO)C(=O)N[C@@H](CC(=O)O)C(=O)N3)C(=O)N[C@@H](CC(=O)O)C(=O)N[C@@H](C(C)C)C(=O)N[C@@H](CC(N)=O)C(=O)N[C@@H](C(C)C)C(=O)N[C@@H](CCC(=O)O)C(=O)N[C@@H]([C@@H](C)O)C(=O)N[C@@H](Cc1ccc(O)cc1)C(=O)N[C@@H]([C@@H](C)O)C(=O)N[C@@H](C(C)C)C(=O)N[C@@H](CO)C(=O)N[C@@H](CO)C(=O)N[C@@H](CO)C(=O)N[C@@H](CCC(=O)O)C(=O)N[C@@H](CCC(=O)O)C(=O)N2 [5ji4-VEGF-3] (H-PCECDVNVETYTVSSSEECKRLCWGFGQSDCRVHCG-OH; disulfide 2-35, 4-19, 23-31)	–	–	3.07	32.18
PCECWMYHTNVGHGSSEECERLCRKLGVTNCRVHCG [VEGF clone 21, phage clone, 5JI4 library, VEGF panning]	29.9279	3.322	–	–
